The values below come from patent US6455761B1, “Agrobacterium-mediated transformation of turnip rape” (Helsinki University Licensing Ltd. Oy, priority 1997, dated 2002).

For data set [1], the system named is inflorescence stem segments of turnip rape plants. As to the kind of experiment: Effect of cultivation factors on transformation of inflorescence stem segments by Agrobacterium LBA4404pGPTV-KAN-GUSint (histological GUS assay). Conditions: for Average %: average of cultivars. The class given is cell-based, Brassica rapa ssp. oleifera.
Data set [2] has as its system explants of turnip rape. Here is the method: (§1) Selection and regeneration. […] Thereafter the whole explants or cut callus pieces with the green nodules and primordia were transferred on hormone free MS medium, where nodules developed primordia and shoots. Silver nitrate in concentration 0-90 μM (0-15 mg/l) and porous paper tape for sealing of Petri dishes were used in transformation and regeneration of transgenic plants.
Shoot regeneration. Effects of different hormones on various explants of mature plants of turnip rape were tested in preliminary experiments to achieve sufficient shoot regeneration.
Silver nitrate application and aeration. The use of silver nitrate in in vitro cultivation of turnip rape has often been reported as an essential factor for shoot regeneration (Chi et al. 1990; Hachey et al. 1991; Mukhopadhuay et al. 1992; Radke et al. 1992). […] We have examined the effect of silver nitrate on regeneration capacity of explants of turnip rape.
Selection. To prevent Agrobacterium growth on the medium we used claforan (cefotaxim) 500 mg/l or carbenicillin 200 mg/l.

Data set [3] deals with Agrobacterium. The following applies: 5 mg/l (30 μM); MS medium during co-cultivation with plant explants. An excerpt:
We have transformed inflorescence stem segments of turnip rape using different concentrations of silver nitrate and sealed plates with plant explants by parafilm or porous paper tape. Transformation efficiency was examined in histological GUS assay 4 days after co-cultivation. Transformation efficiency is shown in Table 4 as proportion of explants with blue inclusions in the calli per all explants (also in %).

Data set [4] has as its system turnip rape plants cv. Valtti and Sisu. As to the kind of experiment: Transgenic shoot regeneration under antibiotic selection. Here is the method:
as §1
Selection on kanamycin or hygromycin was applied immediately after co-cultivation of the explants with Agrobacteria, three days after beginning of the whole procedure. Antibiotics were used in concentrations 20-25 mg/l during all steps of regeneration and cultivation of transgenic plants.
Using nptII and hpt genes in transformation constructions provides the plants resistance to kanamycin and hygromycin, respectively. […] Because morfogenesis occurs mainly on the basal side of the stem segmets, explants are placed basal side down on the selection medium.
Turnip rape plants cv. Valtti and Sisu were transformed with LBA4404 pGPTV-KAN-GUSint and LBA4404 pGPTV-HPT-GUSint.
Analysis of transformation. Green regenerated shoots were checked for GUS activity. Leaves or leaf pieces were prepared for histological GUS assay as described above.

Setting [5] is: 100 μM AS added in MS medium during inoculation and cocultivation, cv. Sisu.
The mark [6] stands for this setting: 100 μM AS added in MS medium during inoculation and cocultivation, cv. Valtti.
The mark [7] stands for this setting: 100 μM AS in MS medium and Agrobacterium grown one night with 100 μM acetosyringone, cv. Sisu.
Where [8] appears, read: 100 μM AS in MS medium and Agrobacterium grown one night with 100 μM acetosyringone, cv. Valtti.
[9] abbreviates: selection on 20 mg/l, cultivars Sisu and Valtti.

With `O=[N+]([O-])[O-].[Ag+]` [AgNO3, silver nitrate], the Average % in data set [1] (5 mg/l AgNO3) was found to be 29.5%; in data set [1] (10 mg/l AgNO3), 37.6%; in data set [1] (15 mg/l AgNO3), 37.6%. Besides, the “GUS +/all %” value in data set [1] (5 mg/l AgNO3, cv. Sisu) turned out to be 27.1%; in data set [1] (5 mg/l AgNO3, cv. Valtti) it was 37.8%; in data set [1] (10 mg/l AgNO3, cv. Sisu), 28.3%; in data set [1] (10 mg/l AgNO3, cv. Valtti), 46.9%; in data set [1] (15 mg/l AgNO3, cv. Sisu), 42.5%; in data set [1] (15 mg/l AgNO3, cv. Valtti), 32.6%. The “GUS +/all” value in data set [1] (5 mg/l AgNO3, cv. Sisu, 4 days after co-cultivation) is reported as 19/70; in data set [1] (5 mg/l AgNO3, cv. Valtti) it was 14/37; in data set [1] (10 mg/l AgNO3, cv. Sisu), 15/53; in data set [1] (10 mg/l AgNO3, cv. Valtti), 15/32; in data set [1] (15 mg/l AgNO3, cv. Sisu) it was 17/40; in data set [1] (15 mg/l AgNO3, cv. Valtti), 14/43. Also, in data set [1] (silver nitrate in the cultivation medium), the effect on transformation result is recorded as “does not have a negative effect on transformation”. The “Shoot regeneration optimum concentration” value in data set [2] is 5 to 10 mg/L. Further, in data set [2], the “effect of high concentrations on cultivated calli” value is “browning and partial necrosis of cultivated calli”. Moreover, the “effect on Agrobacterium growth” value in data set [3] is reported as “suppresses Agrobacterium growth”.

Consider `c1coc(CNc2ncnc3[nH]cnc23)c1` [kinetin], for which, in data set [2] (data not shown), the “effect on shoot regeneration relative to BAP and NAA” value is “less effective than BAP and NAA”.

On to `COc1cc(C(C)=O)cc(OC)c1O` [AS, 3,5-dimethoxy-4-hydroxyacetophenon], for which the Average % was 41.6% in data set [1] (100 μM AS added in MS medium during inoculation and cocultivation); 46.6% in data set [1] (100 μM AS in MS medium and Agrobacterium grown one night with 100 μM acetosyringone). The “GUS +/all” value in data set [1] (setting [5]) is recorded as 24/65; in data set [1] (setting [6]), 36/78; in data set [1] (setting [7]), 29/65; in data set [1] (setting [8]), 35/72. The “GUS +/all %” value in data set [1] (setting [5]) is 36.9%; in data set [1] (setting [6]) it was 46.2%; in data set [1] (setting [7]) it was 44.6%; in data set [1] (setting [8]), 48.6%.

For `O=C(O)Cc1c[nH]c2ccccc12` [IAA, indole-3-acetic acid], the “effect on shoot regeneration relative to BAP and NAA” value in data set [2] (data not shown) is “less effective than BAP and NAA”.

Turning to `NC[C@H]1O[C@H](O[C@H]2[C@H](O)[C@@H](O[C@H]3O[C@H](CO)[C@@H](O)[C@H](N)[C@H]3O)[C@H](N)C[C@@H]2N)[C@H](O)[C@@H](O)[C@@H]1O` [Kanamycin], the escape proportion in data set [4] (selection of transgenic shoots) was 80-90%. Moreover, in data set [4] (setting [9]), the “Escapes per green shoots” value is reported as 52/59, the “Escapes per green shoots %” value worked out at 88%, the “GUS positive per all explants” value is 7/182 and the “GUS positive per all explants %” value is on record as 4%. Moreover, in data set [4] (setting [9]), the “Green shoots per all explants” value is reported as 59/182 and the “Green shoots per all explants %” value is recorded as 32%.

Regarding `CC1(C)S[C@@H]2[C@H](NC(=O)C(C(=O)O)c3ccccc3)C(=O)N2[C@H]1C(=O)O` (some centres unmarked) [carbenicillin], the effect on regeneration result in data set [2] (200 mg/l, data not shown) is recorded as “does not have an apparent negative effect on regeneration”.

Regarding `CO/N=C(\C(=O)N[C@@H]1C(=O)N2C(C(=O)O)=C(COC(C)=O)CS[C@H]12)c1csc(N)n1` [Claforan, cefotaxim], the “recovering of transgenic shoots after inoculation with Agrobacteria” value in data set [4] (claforan used to prevent Agrobacterium growth) was “full block of recovering of transgenic shoots”. In data set [2] (claforan 500 mg/l vs carbenicillin 200 mg/l, data not shown), the “decrease of shoot regeneration frequency compared to carbenicillin” value is 2-5 times.
